Results as given in patent US6702995B1, “Delivery system” (TheRyte, Ltd., priority 1997, dated 2004).

Experiments:
HELA cell line = assay: Clonogenic cell survival assay, HELA; assay type: cell-based, human
Procedure: (§1) TAXOL (paclitaxel) is a powerful cytotoxic agent but is very difficult to use because it is almost insoluble in water or blood plasma. For in vivo or in vitro use, it is generally dissolved in dimethyl sulphoxide (DMSO) or in a complex commercial pharmaceutical preparation. […] The TAXOL (paclitaxel) concentration was varied over the range of 1 to 8nM. These carrier solutions were labeled “polymer” series. Similarly, the same range of TAXOL (paclitaxel) solution concentrations was prepared in neat dimethyl sulphoxide as solvent; these carrier solutions were labeled “DMSO” series. Finally, a series of commercially available pharmaceutical preparations was used, which contained TAXOL (paclitaxel) in the concentration range of 1 to 8 nM; these carrier solutions were labeled “commercial” series. […] The four series of solutions were compared for their cytotoxic action by a clonogenic cell survival assay using three human in vitro cell lines, viz., HELA (originally explanted from cancer of the cervix), HRT-18 (originally explanted from […]) and MGHU-1 (originally explanted from a bladder cancer).

HRT-18 cell line = assay: Clonogenic cell survival assay, HRT-18; assay type: cell-based, human; details: HRT-18, clonogenic cell survival
Procedure: as §1

MGHU-1 cell line = assay: Clonogenic cell survival assay, MGHU-1; assay type: cell-based, human; details: MGHU-1, clonogenic cell survival
Procedure: as §1

Procedure for cancer cells (Molt 4): Typically, for a porphyrin sensitizer, the concentration was determined by ultraviolet/visible measurement of absorption at the Soret wavelength near 420 nm.
The cell growth medium was prepared in three varieties. Each variety contained the nutrients required for cell growth. One variety contained neither sensitizer nor polymer, a second contained polymer but no sensitizer and a third contained both polymer and sensitizer.
The resulting solution was adjusted to pH 7.2 by careful addition of aqueous sodium hydroxide solution (5 M) and finally once more filtered through a 0.22 μm filter. The resulting solution was used as the growth medium containing both sensitizer and polymer in the following experiments. A growth medium containing only polymer was prepared as here but omitting the sensitizer, viz, instead of the sensitizer solution (85 mL), an equal volume of distilled water containing the same amount of polymer but no sensitizer was added. […]
For each growth medium, 10 mL of a suspension containing 10^7-10^8 cells/mL were centrifuged and the cells were resuspended in one of the growth media described above (45mL) to give three cell preparations: A, containing sensitizer plus polymer; B, containing neither sensitizer nor polymer; C, containing polymer but no sensitizer. […] Its amount could be determined by visible spectroscopy as described above. […]

Row | SMILES | cytotoxic action (in words) (HELA cell line) | cytotoxic action (in words) (HRT-18 cell line) | cytotoxic action (in words) (MGHU-1 cell line) | cell growth (cell count) (cancer cells (Molt 4))
1 | COc1cc(NS(C)(=O)=O)ccc1Nc1c2ccccc2nc2ccccc12 [amsacrine] | effective | effective | effective | –
2 | C1=Cc2nc1c(-c1ccccc1)c1ccc([nH]1)c(-c1ccccc1)c1nc(c(-c3ccccc3)c3ccc([nH]3)c2-c2ccccc2)C=C1 [sensitizer, 5,10,15,20 tetrakis phenyl porphyrin] | – | – | – | not inhibited
